Data from patent US6482990B1, “Prostaglandin E analogues” (Taisho Pharmaceutical Co., Ltd., priority 1999, dated 2002).

Test system: human vascular smooth muscle cells
Test: DNA synthesis inhibition activity (3H-thymidine intake) in human vascular smooth muscle cells
Assay type: cell-based
Settings: for IC50: vascular cells derived from normal human aorta, 24 hours culture with 3H-thymidine, test compound as ethanol solution, compared with vehicle-treated control; for inhibiting activity on the growth of human vascular smooth muscle cells: conclusion in words from Table 2
Method: Determination of DNA synthesis inhibition activity of PGE1 analogs to human vascular smooth muscle cells
On a 24 well-plate (manufactured by Corning Co.), 1×10^4 cells/well of quintic culture cells of vascular cells derived from normal human aorta (produced by Kurabo Co.) were inoculated and cultured for 2 days. The medium was exchanged from the growth medium (SG2: produced by Kurabo Co.) to the basal medium (SB2: produced by Kurabo Co.), and cultured for 24 hours, to which was added the growth medium (SG2) containing an ethanol solution of the test compound. ^3H-thymidine (produced by Daiichi Chemicals Co.) was added in an amount of 0.01 mci/well and, after culturing for 24 hours, the cultured supernatant was removed by suction, followed by washing with a phosphate buffer solution (PBS).
5% Trichloroacetic acid (TCA) was added and, after allowing to stand at 4° C. for 20 minutes, the mixture was washed once with TCA. The mixture was washed with PBS, and dissolved in 0.5 N KOH. Intake of ^3H-thymidine was determined using 20 μl of KOH dissolving the cells which incorporated ^3H-thymidine in the nucleus by means of a liquid scintillation counter (manufactured by Hewlett-Packard Co.).

Compound	IC50 [nM]	inhibiting activity on the growth of human vascular smooth muscle cells
COC(=O)/C=C/CCCCC1C(=O)CC(O)C1C#CC(O)CCc1ccccc1 (centres unmarked) [Comparative Compound, (2E)-18,19,20-Trinor-17-phenyl-2,3,13,14-tetradehydro-PGE1 methyl ester, reference compound]	4360	
O=C1CC(O)C(C=CC(O)CCc2ccccc2)C1CCCc1ccc(C(F)(F)F)cc1 (centres unmarked) [Compound 18, 2-Decarboxy-2,3,4,18,19,20-hexanor-5-(4-trifluoromethylphenyl)-17-phenyl-PGE1]	660	high inhibiting activity
Cc1ccc(CCCC2C(=O)CC(O)C2C=CC(O)CCc2ccccc2)cc1 (centres unmarked) [Compound 29, 2-Decarboxy-2,3,4,18,19,20-hexanor-5-(4-methylphenyl)-17-phenyl-PGE1]	730	high inhibiting activity
